Results published in the supplement of paper PMC10307832.

Key:
Experiment in all cases: relative viability (nuclei count vs DMSO), 5 days (fraction); higher = more cells survive
BAY61-3606 + Olaparib = compound: COC1=C(C=C(C=C1)C2=CC3=NC=CN3C(=N2)NC4=C(C=CC=N4)C(=O)N)OC [BAY61-3606] + O=C(c1cc(Cc2n[nH]c(=O)c3ccccc23)ccc1F)N1CCN(C(=O)C2CC2)CC1 [Olaparib] (partner 8 µM)
Outline: (§1)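 One day after seeding in 1536-well plates, lung cancer cell lines were dosed by pin tool. Dosing was either single-drug or a fixed anchor-drug dose plus five library-drug doses (not always all listed) in √10 steps. After 5 days, nuclei were stained in one fix-and-stain step and counted on 4× images, and relative viability is the nuclei count of treated wells over that of vehicle wells, given as the median of duplicate plates.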

Doxorubicin + Pictilisib = compound: COc1cccc2c1C(=O)c1c(O)c3c(c(O)c1C2=O)C[C@@](O)(C(=O)CO)C[C@@H]3O[C@H]1C[C@H](N)[C@H](O)[C@H](C)O1 [Doxorubicin] + CS(=O)(=O)N1CCN(Cc2cc3nc(-c4cccc5[nH]ncc45)nc(N4CCOCC4)c3s2)CC1 [Pictilisib] (partner 1 µM)
Outline: as §1

BAY61-3606 + Luminespib = compound: COC1=C(C=C(C=C1)C2=CC3=NC=CN3C(=N2)NC4=C(C=CC=N4)C(=O)N)OC [BAY61-3606] + CCNC(=O)c1noc(-c2cc(C(C)C)c(O)cc2O)c1-c1ccc(CN2CCOCC2)cc1 [Luminespib] (partner 0.01 µM)
Outline: as §1

Doxorubicin + AZD7762 = compound: COc1cccc2c1C(=O)c1c(O)c3c(c(O)c1C2=O)C[C@@](O)(C(=O)CO)C[C@@H]3O[C@H]1C[C@H](N)[C@H](O)[C@H](C)O1 [Doxorubicin] + NC(=O)Nc1cc(-c2cccc(F)c2)sc1C(=O)N[C@H]1CCCNC1 [AZD7762] (partner 0.2 µM)
Outline: as §1

Row | Cell Line | relative viability (BAY61-3606 + Olaparib; first compound 0.02 µM) | relative viability (BAY61-3606 + Olaparib; first compound 0.06325 µM) | relative viability (BAY61-3606 + Olaparib; first compound 0.2 µM) | relative viability (BAY61-3606 + Olaparib; first compound 0.6325 µM) | relative viability (BAY61-3606 + Olaparib; first compound 2 µM) | relative viability (Doxorubicin + Pictilisib; first compound 0.001 µM) | relative viability (Doxorubicin + Pictilisib; first compound 0.003162 µM) | relative viability (Doxorubicin + Pictilisib; first compound 0.01 µM) | relative viability (Doxorubicin + Pictilisib; first compound 0.03162 µM) | relative viability (Doxorubicin + Pictilisib; first compound 0.1 µM) | relative viability (BAY61-3606 + Luminespib; first compound 0.02 µM) | relative viability (BAY61-3606 + Luminespib; first compound 0.06325 µM) | relative viability (BAY61-3606 + Luminespib; first compound 0.2 µM) | relative viability (BAY61-3606 + Luminespib; first compound 0.6325 µM) | relative viability (BAY61-3606 + Luminespib; first compound 2 µM) | relative viability (Doxorubicin + AZD7762; first compound 0.001 µM) | relative viability (Doxorubicin + AZD7762; first compound 0.003162 µM) | relative viability (Doxorubicin + AZD7762; first compound 0.01 µM) | relative viability (Doxorubicin + AZD7762; first compound 0.03162 µM) | relative viability (Doxorubicin + AZD7762; first compound 0.1 µM)
1 | Calu-6 | 0.659 | 0.562 | 0.543 | 0.551 | 0.466 | 0.919 | 0.799 | 0.516 | 0.263 | 0.172 |  |  |  |  |  |  |  |  |  | 
2 | EBC-1 | 0.712 | 0.769 | 0.701 | 0.748 | 0.614 | 0.388 | 0.405 | 0.295 | 0.195 | 0.11 |  |  |  |  |  |  |  |  |  | 
3 | NCI-H596 | 0.74 | 0.75 | 0.722 | 0.925 | 0.544 | 0.353 | 0.436 | 0.41 | 0.44 | 0.379 | 0.941 | 1.14 | 0.929 | 1.3 | 0.62 | 1.13 | 1.12 | 0.987 | 0.986 | 0.959
4 | A-427 | 0.79 | 0.694 | 0.765 | 0.777 | 0.715 | 0.664 | 0.818 | 0.723 | 0.636 | 0.791 | 0.842 | 0.928 | 0.86 | 0.965 | 0.808 | 0.733 | 0.857 | 0.713 | 0.463 | 0.482
5 | NCI-H3122 | 0.607 | 0.652 | 0.676 | 0.636 | 0.57 | 0.507 | 0.62 | 0.566 | 0.527 | 0.611 | 0.121 | 0.0764 | 0.0868 | 0.099 | 0.0933 | 0.964 | 1.03 | 0.894 | 0.989 | 0.952
6 | NCI-H1437 | 0.634 | 0.687 | 0.607 | 0.621 | 0.555 | 0.541 | 0.443 | 0.363 | 0.122 | 0.143 | 1.14 | 1.15 | 1 | 1.19 | 1.04 | 1.11 | 0.994 | 1.04 | 1.09 | 0.877
7 | SK-MES-1 | 0.679 | 0.786 | 0.606 | 0.688 | 0.31 | 0.368 | 0.395 | 0.362 | 0.342 | 0.204 | 0.862 | 0.759 | 0.791 | 0.805 | 0.304 |  |  |  |  | 
8 | HCC-366 | 0.406 | 0.436 | 0.365 | 0.324 | 0.235 | 0.155 | 0.182 | 0.119 | 0.162 | 0.162 |  |  |  |  |  | 0.278 | 0.234 | 0.233 | 0.117 | 0.0686
